Reference: the supplement of paper PMC10307832

What was measured:
Assay in all cases: relative viability (nuclei count vs DMSO), 5 days (fraction); higher = more cells survive
Afatinib + Pictilisib = compound: CN(C)C/C=C/C(=O)Nc1cc2c(Nc3ccc(F)c(Cl)c3)ncnc2cc1O[C@H]1CCOC1 [Afatinib] + CS(=O)(=O)N1CCN(Cc2cc3nc(-c4cccc5[nH]ncc45)nc(N4CCOCC4)c3s2)CC1 [Pictilisib] (partner 1 µM)
Procedure, shortened: (§1)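 Lung cancer cell lines in 1536-well plates got either a single drug or a fixed anchor-drug dose together with five library-drug doses (not always all listed) in √10 steps, by pin tool, on the day after seeding. Nuclei were counted after 5 days, and relative viability is the treated-to-vehicle ratio of nuclei counts. Values are medians of duplicate plates.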

Afatinib + Phenformin = compound: CN(C)C/C=C/C(=O)Nc1cc2c(Nc3ccc(F)c(Cl)c3)ncnc2cc1O[C@H]1CCOC1 [Afatinib] + N=C(N)NC(=N)NCCc1ccccc1 [Phenformin] (partner 250 µM)
Procedure, shortened: as §1

Afatinib + Palbociclib = compound: CN(C)C/C=C/C(=O)Nc1cc2c(Nc3ccc(F)c(Cl)c3)ncnc2cc1O[C@H]1CCOC1 [Afatinib] + CC(=O)c1c(C)c2cnc(Nc3ccc(N4CCNCC4)cn3)nc2n(C2CCCC2)c1=O [Palbociclib] (partner 0.5 µM)
Procedure, shortened: as §1

Afatinib + Decitabine = compound: CN(C)C/C=C/C(=O)Nc1cc2c(Nc3ccc(F)c(Cl)c3)ncnc2cc1O[C@H]1CCOC1 [Afatinib] + Nc1ncn([C@H]2C[C@H](O)[C@@H](CO)O2)c(=O)n1 [Decitabine] (partner 2 µM)
Procedure, shortened: as §1

## NCI-H2087
Afatinib + Pictilisib; first compound 0.005 µM
  relative viability: 1.12
Afatinib + Pictilisib; first compound 0.01581 µM
  relative viability: 0.907
Afatinib + Pictilisib; first compound 0.05 µM
  relative viability: 0.86
Afatinib + Pictilisib; first compound 0.1581 µM
  relative viability: 0.904
Afatinib + Pictilisib; first compound 0.5 µM
  relative viability: 0.72
Afatinib + Phenformin; first compound 0.005 µM
  relative viability: 0.454
Afatinib + Phenformin; first compound 0.01581 µM
  relative viability: 0.475
Afatinib + Phenformin; first compound 0.05 µM
  relative viability: 0.446
Afatinib + Phenformin; first compound 0.1581 µM
  relative viability: 0.446
Afatinib + Phenformin; first compound 0.5 µM
  relative viability: 0.373
Afatinib + Palbociclib; first compound 0.005 µM
  relative viability: 0.232
Afatinib + Palbociclib; first compound 0.01581 µM
  relative viability: 0.185
Afatinib + Palbociclib; first compound 0.05 µM
  relative viability: 0.226
Afatinib + Palbociclib; first compound 0.1581 µM
  relative viability: 0.253
Afatinib + Palbociclib; first compound 0.5 µM
  relative viability: 0.191
Afatinib + Decitabine; first compound 0.005 µM
  relative viability: 0.336
Afatinib + Decitabine; first compound 0.01581 µM
  relative viability: 0.227
Afatinib + Decitabine; first compound 0.05 µM
  relative viability: 0.262
Afatinib + Decitabine; first compound 0.1581 µM
  relative viability: 0.209
Afatinib + Decitabine; first compound 0.5 µM
  relative viability: 0.25

## NCI-H2228
Afatinib + Pictilisib; first compound 0.005 µM
  relative viability: 0.343
Afatinib + Pictilisib; first compound 0.01581 µM
  relative viability: 0.45
Afatinib + Pictilisib; first compound 0.05 µM
  relative viability: 0.381
Afatinib + Pictilisib; first compound 0.5 µM
  relative viability: 0.279
Afatinib + Phenformin; first compound 0.005 µM
  relative viability: 0.279
Afatinib + Phenformin; first compound 0.01581 µM
  relative viability: 0.273
Afatinib + Phenformin; first compound 0.05 µM
  relative viability: 0.31
Afatinib + Phenformin; first compound 0.1581 µM
  relative viability: 0.257
Afatinib + Phenformin; first compound 0.5 µM
  relative viability: 0.242
Afatinib + Palbociclib; first compound 0.005 µM
  relative viability: 0.884
Afatinib + Palbociclib; first compound 0.01581 µM
  relative viability: 0.774
Afatinib + Palbociclib; first compound 0.05 µM
  relative viability: 0.705
Afatinib + Palbociclib; first compound 0.1581 µM
  relative viability: 0.749
Afatinib + Palbociclib; first compound 0.5 µM
  relative viability: 0.744

## NCI-H727
Afatinib + Pictilisib; first compound 0.005 µM
  relative viability: 0.315
Afatinib + Pictilisib; first compound 0.01581 µM
  relative viability: 0.401
Afatinib + Pictilisib; first compound 0.05 µM
  relative viability: 0.306
Afatinib + Pictilisib; first compound 0.1581 µM
  relative viability: 0.279
Afatinib + Pictilisib; first compound 0.5 µM
  relative viability: 0.281
Afatinib + Phenformin; first compound 0.005 µM
  relative viability: 0.493
Afatinib + Phenformin; first compound 0.05 µM
  relative viability: 0.299
Afatinib + Phenformin; first compound 0.1581 µM
  relative viability: 0.613
Afatinib + Phenformin; first compound 0.5 µM
  relative viability: 0.442
Afatinib + Palbociclib; first compound 0.005 µM
  relative viability: 0.586
Afatinib + Palbociclib; first compound 0.01581 µM
  relative viability: 0.637
Afatinib + Palbociclib; first compound 0.05 µM
  relative viability: 0.6
Afatinib + Palbociclib; first compound 0.1581 µM
  relative viability: 0.506
Afatinib + Palbociclib; first compound 0.5 µM
  relative viability: 0.544
Afatinib + Decitabine; first compound 0.005 µM
  relative viability: 0.826
Afatinib + Decitabine; first compound 0.01581 µM
  relative viability: 0.534
Afatinib + Decitabine; first compound 0.05 µM
  relative viability: 0.831
Afatinib + Decitabine; first compound 0.1581 µM
  relative viability: 0.761
Afatinib + Decitabine; first compound 0.5 µM
  relative viability: 0.829

## NCI-H650
Afatinib + Pictilisib; first compound 0.005 µM
  relative viability: 0.889
Afatinib + Pictilisib; first compound 0.01581 µM
  relative viability: 0.793
Afatinib + Pictilisib; first compound 0.05 µM
  relative viability: 1
Afatinib + Pictilisib; first compound 0.1581 µM
  relative viability: 1.09
Afatinib + Pictilisib; first compound 0.5 µM
  relative viability: 0.924
Afatinib + Phenformin; first compound 0.005 µM
  relative viability: 0.498
Afatinib + Phenformin; first compound 0.01581 µM
  relative viability: 0.46
Afatinib + Phenformin; first compound 0.05 µM
  relative viability: 0.446
Afatinib + Phenformin; first compound 0.1581 µM
  relative viability: 0.498
Afatinib + Phenformin; first compound 0.5 µM
  relative viability: 0.351
Afatinib + Palbociclib; first compound 0.005 µM
  relative viability: 0.343
Afatinib + Palbociclib; first compound 0.01581 µM
  relative viability: 0.34
Afatinib + Palbociclib; first compound 0.05 µM
  relative viability: 0.395
Afatinib + Palbociclib; first compound 0.1581 µM
  relative viability: 0.331
Afatinib + Palbociclib; first compound 0.5 µM
  relative viability: 0.336
Afatinib + Decitabine; first compound 0.005 µM
  relative viability: 0.321
Afatinib + Decitabine; first compound 0.01581 µM
  relative viability: 0.323
Afatinib + Decitabine; first compound 0.05 µM
  relative viability: 0.334
Afatinib + Decitabine; first compound 0.1581 µM
  relative viability: 0.334
Afatinib + Decitabine; first compound 0.5 µM
  relative viability: 0.308

## NCI-H520
Afatinib + Pictilisib; first compound 0.005 µM
  relative viability: 0.353
Afatinib + Pictilisib; first compound 0.01581 µM
  relative viability: 0.304
Afatinib + Pictilisib; first compound 0.05 µM
  relative viability: 0.208
Afatinib + Pictilisib; first compound 0.1581 µM
  relative viability: 0.232
Afatinib + Pictilisib; first compound 0.5 µM
  relative viability: 0.233
Afatinib + Phenformin; first compound 0.005 µM
  relative viability: 0.562
Afatinib + Phenformin; first compound 0.01581 µM
  relative viability: 0.593
Afatinib + Phenformin; first compound 0.05 µM
  relative viability: 0.689
Afatinib + Phenformin; first compound 0.1581 µM
  relative viability: 0.609
Afatinib + Phenformin; first compound 0.5 µM
  relative viability: 0.57
Afatinib + Palbociclib; first compound 0.005 µM
  relative viability: 0.245
Afatinib + Palbociclib; first compound 0.01581 µM
  relative viability: 0.241
Afatinib + Palbociclib; first compound 0.05 µM
  relative viability: 0.229
Afatinib + Palbociclib; first compound 0.1581 µM
  relative viability: 0.219
Afatinib + Palbociclib; first compound 0.5 µM
  relative viability: 0.229
Afatinib + Decitabine; first compound 0.005 µM
  relative viability: 0.539
Afatinib + Decitabine; first compound 0.01581 µM
  relative viability: 0.454
Afatinib + Decitabine; first compound 0.05 µM
  relative viability: 0.45
Afatinib + Decitabine; first compound 0.1581 µM
  relative viability: 0.483
Afatinib + Decitabine; first compound 0.5 µM
  relative viability: 0.413

## EBC-1
Afatinib + Pictilisib; first compound 0.005 µM
  relative viability: 0.391
Afatinib + Pictilisib; first compound 0.01581 µM
  relative viability: 0.386
Afatinib + Pictilisib; first compound 0.05 µM
  relative viability: 0.465
Afatinib + Pictilisib; first compound 0.1581 µM
  relative viability: 0.358
Afatinib + Pictilisib; first compound 0.5 µM
  relative viability: 0.372

## NCI-H661
Afatinib + Pictilisib; first compound 0.005 µM
  relative viability: 0.386
Afatinib + Pictilisib; first compound 0.01581 µM
  relative viability: 0.301
Afatinib + Pictilisib; first compound 0.05 µM
  relative viability: 0.318
Afatinib + Pictilisib; first compound 0.1581 µM
  relative viability: 0.313
Afatinib + Pictilisib; first compound 0.5 µM
  relative viability: 0.249
Afatinib + Phenformin; first compound 0.005 µM
  relative viability: 0.292
Afatinib + Phenformin; first compound 0.01581 µM
  relative viability: 0.255
Afatinib + Phenformin; first compound 0.05 µM
  relative viability: 0.253
Afatinib + Phenformin; first compound 0.1581 µM
  relative viability: 0.247
Afatinib + Phenformin; first compound 0.5 µM
  relative viability: 0.244
Afatinib + Palbociclib; first compound 0.005 µM
  relative viability: 0.387
Afatinib + Palbociclib; first compound 0.01581 µM
  relative viability: 0.339
Afatinib + Palbociclib; first compound 0.05 µM
  relative viability: 0.347
Afatinib + Palbociclib; first compound 0.1581 µM
  relative viability: 0.34
Afatinib + Palbociclib; first compound 0.5 µM
  relative viability: 0.337
Afatinib + Decitabine; first compound 0.005 µM
  relative viability: 0.502
Afatinib + Decitabine; first compound 0.01581 µM
  relative viability: 0.428
Afatinib + Decitabine; first compound 0.05 µM
  relative viability: 0.44
Afatinib + Decitabine; first compound 0.1581 µM
  relative viability: 0.391
Afatinib + Decitabine; first compound 0.5 µM
  relative viability: 0.401

## NCI-H1299
Afatinib + Pictilisib; first compound 0.005 µM
  relative viability: 0.84
Afatinib + Pictilisib; first compound 0.01581 µM
  relative viability: 0.828
Afatinib + Pictilisib; first compound 0.05 µM
  relative viability: 0.927
Afatinib + Pictilisib; first compound 0.1581 µM
  relative viability: 0.647
Afatinib + Pictilisib; first compound 0.5 µM
  relative viability: 0.68

## LK-2
Afatinib + Pictilisib; first compound 0.005 µM
  relative viability: 0.546
Afatinib + Pictilisib; first compound 0.05 µM
  relative viability: 0.485
Afatinib + Pictilisib; first compound 0.1581 µM
  relative viability: 0.596
Afatinib + Pictilisib; first compound 0.5 µM
  relative viability: 0.535
Afatinib + Phenformin; first compound 0.005 µM
  relative viability: 0.471
Afatinib + Phenformin; first compound 0.01581 µM
  relative viability: 0.306
Afatinib + Phenformin; first compound 0.05 µM
  relative viability: 0.422
Afatinib + Phenformin; first compound 0.1581 µM
  relative viability: 0.488
Afatinib + Phenformin; first compound 0.5 µM
  relative viability: 0.574
Afatinib + Palbociclib; first compound 0.005 µM
  relative viability: 0.621
Afatinib + Palbociclib; first compound 0.01581 µM
  relative viability: 0.633
Afatinib + Palbociclib; first compound 0.05 µM
  relative viability: 0.656
Afatinib + Palbociclib; first compound 0.1581 µM
  relative viability: 0.673
Afatinib + Palbociclib; first compound 0.5 µM
  relative viability: 0.584
Afatinib + Decitabine; first compound 0.005 µM
  relative viability: 0.41
Afatinib + Decitabine; first compound 0.01581 µM
  relative viability: 0.258
Afatinib + Decitabine; first compound 0.05 µM
  relative viability: 0.288
Afatinib + Decitabine; first compound 0.1581 µM
  relative viability: 0.328
Afatinib + Decitabine; first compound 0.5 µM
  relative viability: 0.301

## NCI-H1993
Afatinib + Pictilisib; first compound 0.005 µM
  relative viability: 0.93
Afatinib + Pictilisib; first compound 0.01581 µM
  relative viability: 0.937
Afatinib + Pictilisib; first compound 0.05 µM
  relative viability: 0.983
Afatinib + Pictilisib; first compound 0.1581 µM
  relative viability: 1.03
Afatinib + Pictilisib; first compound 0.5 µM
  relative viability: 0.868
Afatinib + Phenformin; first compound 0.005 µM
  relative viability: 0.596
Afatinib + Phenformin; first compound 0.01581 µM
  relative viability: 0.645
Afatinib + Phenformin; first compound 0.05 µM
  relative viability: 0.656
Afatinib + Phenformin; first compound 0.1581 µM
  relative viability: 0.639
Afatinib + Phenformin; first compound 0.5 µM
  relative viability: 0.589
Afatinib + Palbociclib; first compound 0.005 µM
  relative viability: 0.532
Afatinib + Palbociclib; first compound 0.01581 µM
  relative viability: 0.571
Afatinib + Palbociclib; first compound 0.05 µM
  relative viability: 0.539
Afatinib + Palbociclib; first compound 0.1581 µM
  relative viability: 0.538
Afatinib + Palbociclib; first compound 0.5 µM
  relative viability: 0.577
Afatinib + Decitabine; first compound 0.005 µM
  relative viability: 0.552
Afatinib + Decitabine; first compound 0.01581 µM
  relative viability: 0.51
Afatinib + Decitabine; first compound 0.05 µM
  relative viability: 0.546
Afatinib + Decitabine; first compound 0.1581 µM
  relative viability: 0.509
Afatinib + Decitabine; first compound 0.5 µM
  relative viability: 0.578
